In patent US4346103A, “Treatment for arthritis and substances for use in such treatment” (priority 1976, dated 1982):

Key:
[1] = adhesion to intestinal mucosa / absorption; format: in vivo; settings: rhein found to adhere, should thus be relatively poorly absorbed
[2] = test system: NADH-dehydrogenase complex; settings: interferes with redox function of NADH-dehydrogenase complex, thus mitochondrial oxidations; cited from earlier work
[3] = cited from earlier work
[4] = acute toxicity trial in mice; format: in vivo; settings: 26 mice; doses up to about 3000 mg per kg per day
Protocol: In an acute toxicity trial, 1,8-diacetoxy-3-carboxyanthraquinone (diacetylrhein) was administered to 26 mice in doses of up to about 3000 mg per kg per day.

[5] = human ingestion of diacetylrhein for 15 months, side effects; format: in vivo; settings: about 100 mg per day
Protocol: (§1) A human patient having severe osteoarthritis (established by X-ray, CSF and rheumatoid factor assessments) across the lower back was treated with diacetylrhein. The patient had greatly restricted torsal rotation and a notable pain in their back and legs after remaining seated for 30 to 60 minutes. The patient was treated by ingesting two daily doses of 50 mg of diacetylrhein.

[6] = treatment of osteoarthritis patients; format: in vivo, human; settings: one patient, severe osteoarthritis across lower back
Protocol: as §1

[7] = treatment of patients with rheumatoid arthritis of the hands; format: in vivo, human; settings: three cases; 50 mg twice daily for between five and ten days
Protocol: In three cases, patients with rheumatoid arthritis of the hands, having swollen fingers and painful joints, were treated with 50 mg of diacetylrhein, twice daily for between five and ten days.

[8] = clinical tests on arthritis patients; format: in vivo, human
Text: Clinical tests have been carried out on arthritis patients with extremely encouraging results.

treatment of MS patients = format: in vivo; settings: four human patients; two daily doses of 50 mg, ingested
Protocol: Four human patients suffering from MS were treated with diacetylrhein. They were treated by ingesting two daily doses of 50 mg diacetylrhein.

[9] = treatment of an ALS patient; format: in vivo, human; settings: one patient, fairly advanced stage; six months; daily doses increasing up to 150 mg
Protocol: A human patient suffering from ALS in a fairly advanced stage was treated with diacetylrhein over a period of six months. The diacetylrhein was ingested in daily doses increasing up to 150 mg daily.

[10] = clinical trials in MS and ALS patients; format: in vivo, human; settings: patients suffering from MS and ALS
Text: Clinical trials are being carried out in which patients suffering from MS and ALS are being treated with diacetylrhein.

[11] = side effects in all clinical trials to date; format: in vivo, human
Text: In all clinical trials carried out to date with diacetylrhein side effects have been unsignificant.

[12] = two daily doses of 50 mg, ingested

Compound | adhesion to the intestinal mucosa [1] | inhibition of NADH-linked oxidation [2] | toxicity ([3]; oral ingestion) | side-effects on long-term intake ([3]; taken for long periods of time, in the dosage required) | deaths [4] | untoward effects [5] | condition with continued treatment ([6]; continued treatment) | onset of effect [6, 12] | pain, torsal rotation and early morning stiffness [6, 12] | finger thickness (swelling) [7] | pain in the joints [7] | failure to respond to treatment ([8]; arthritis patients) | need for Charnley Hip Operation ([8]; patients with arthritis of the hip) | pain and limb unsteadiness (treatment of MS patients) | deterioration: unsteadiness of gait and weakness of voice [9] | stabilisation of condition [9] | results of clinical trials [10] | side effects ([11]; all clinical trials carried out to date) | only side effect encountered ([11]; all clinical trials to date, eliminated by reducing the dosage)
O=C(O)c1cc(O)c2c(c1)C(=O)c1cccc(O)c1C2=O [Rhein, 1,8-dihydroxyanthra-quinone-3-carboxylic acid] | adheres strongly to the intestinal mucosa | inhibitor of NADH-linked oxidation | relatively non-toxic | without any apparent side-effects |  |  |  |  |  |  |  |  |  |  |  |  |  |  | 
CC(=O)Oc1cccc2c1C(=O)c1c(OC(C)=O)cc(C(=O)O)cc1C2=O [diacetylrhein, 1,8-diacetoxy-3-carboxyanthraquinone] |  |  |  |  | None of the mice died | No untoward effects were noted | maintained their improved condition | An effect was noted on the fourth and fifth days | became pain free with restored torsal rotation and without early morning stiffness | The fingers rapidly returned to normal thickness | the pain in the joints disappeared and was absent even when these were submitted to pressure | There has almost never been a failure to respond to this treatment | sufficient progress for this to be unnecessary | The pain and a large part of the limb unsteadiness disappeared within seven to ten days of initiating treatment | substantially inhibited | substantially stabilised | most encouraging | unsignificant | some diarrhoea
